Source: ChEMBL document CHEMBL1158228, “Anti-HIV triterpene acids from Geum japonicum” (J Nat Prod, 1996)

These compounds were tested against Protease (Human immunodeficiency virus 1) (UniProt Q9YQ12) (assay: Inhibition of HIV1 recombinant protease expressed in Escherichia coli DH5alpha at 17.9 ug/mL after 2 hrs by HPLC assay).
Chain of Protease (Human immunodeficiency virus 1) (Q9YQ12 as listed by the source): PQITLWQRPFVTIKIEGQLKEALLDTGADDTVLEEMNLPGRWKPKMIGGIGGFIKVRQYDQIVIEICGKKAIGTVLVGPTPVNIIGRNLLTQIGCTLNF

Row | Compound | inhibition [%]
1 | C[C@H]1[C@H](C)CC[C@]2(C(=O)O)CC[C@]3(C)C(=CC[C@@H]4[C@@]5(C)CC[C@H](O)C(C)(C)[C@@H]5CC[C@]43C)[C@H]12 | 85
2 | CC1(C)CC[C@]2(C(=O)O)CC[C@]3(C)C(=CC[C@@H]4[C@@]5(C)C[C@@H](O)[C@H](O)C(C)(C)[C@@H]5CC[C@]43C)[C@@H]2C1 | 100
3 | C[C@@H]1CC[C@]2(C(=O)O)CC[C@]3(C)C(=CC[C@@H]4[C@@]5(C)CC[C@@H](O)C(C)(C)[C@@H]5CC[C@]43C)[C@@H]2[C@]1(C)O | 42

Further lines, results first:

Row | inhibition [%] | Compound
4 | 49 | C[C@@H]1CC[C@]2(C(=O)O)CC[C@]3(C)C(=CC[C@@H]4[C@@]5(C)C[C@@H](O)[C@H](O)C(C)(C)[C@@H]5CC[C@]43C)[C@@H]2[C@]1(C)O
5 | 0 | C[C@@H]1CC[C@]2(C(=O)O)CC[C@]3(C)C(=CC[C@@H]4[C@@]5(C)C[C@@H](O)[C@@H](O)C(C)(C)[C@@H]5CC[C@]43C)[C@@H]2[C@]1(C)O
6 | 72 | C[C@@H]1CC[C@]2(C(=O)O)CC[C@]3(C)C(=CC[C@@H]4[C@@]5(C)C[C@@H](O)C(=O)C(C)(C)[C@@H]5CC[C@]43C)[C@@H]2[C@]1(C)O
